Assay results taken from the Kinase Knowledgebase extract (Sharma et al. 2016).
pIC50: −log10 of the molar value.

Assays:
PIK3CA (rat) = test: Hexosaminidase Secretion Inhibition (RBL-2H3 cells); details: rbl2h3
PIK3CA = PIK3CA (UniProt P42336); test: PI 3-Kinase Inhibition; details: for inhibition: concentration not given here
Chain of PIK3CA (P42336 whole entry, looked up): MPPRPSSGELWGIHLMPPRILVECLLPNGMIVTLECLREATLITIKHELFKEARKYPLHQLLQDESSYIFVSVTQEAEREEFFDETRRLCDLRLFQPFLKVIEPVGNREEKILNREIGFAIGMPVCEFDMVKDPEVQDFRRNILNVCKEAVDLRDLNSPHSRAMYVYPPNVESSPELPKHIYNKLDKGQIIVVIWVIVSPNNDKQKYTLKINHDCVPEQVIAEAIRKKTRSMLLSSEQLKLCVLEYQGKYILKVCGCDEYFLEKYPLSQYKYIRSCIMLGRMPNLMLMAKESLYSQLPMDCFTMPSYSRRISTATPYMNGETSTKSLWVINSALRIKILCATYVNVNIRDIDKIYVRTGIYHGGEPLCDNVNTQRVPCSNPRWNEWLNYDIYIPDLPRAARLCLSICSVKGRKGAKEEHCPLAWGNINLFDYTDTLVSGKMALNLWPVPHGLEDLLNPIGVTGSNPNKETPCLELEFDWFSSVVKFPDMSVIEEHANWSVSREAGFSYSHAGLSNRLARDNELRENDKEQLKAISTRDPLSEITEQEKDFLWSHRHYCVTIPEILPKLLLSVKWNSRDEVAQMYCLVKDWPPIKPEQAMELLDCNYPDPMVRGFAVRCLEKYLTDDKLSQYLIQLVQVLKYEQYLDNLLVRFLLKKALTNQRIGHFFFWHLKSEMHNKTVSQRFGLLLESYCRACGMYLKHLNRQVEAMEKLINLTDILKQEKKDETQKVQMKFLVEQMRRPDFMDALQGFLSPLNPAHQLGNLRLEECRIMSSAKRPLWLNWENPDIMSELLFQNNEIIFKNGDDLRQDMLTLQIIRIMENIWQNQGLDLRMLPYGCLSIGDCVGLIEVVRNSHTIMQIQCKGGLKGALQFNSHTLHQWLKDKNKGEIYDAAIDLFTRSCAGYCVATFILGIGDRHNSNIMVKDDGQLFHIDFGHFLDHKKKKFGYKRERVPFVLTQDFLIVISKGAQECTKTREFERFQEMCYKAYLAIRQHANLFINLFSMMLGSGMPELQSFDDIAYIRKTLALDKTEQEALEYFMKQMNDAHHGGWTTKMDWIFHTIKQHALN

| pIC50 (PIK3CA (rat)) | inhibition (PIK3CA) | pIC50 (PIK3CA) | SMILES |
| --- | --- | --- | --- |
| 5.74 |  |  | O=c1cc(N2CCOCC2)oc2c(-c3ccccc3)cccc12 |
|  | 60% |  | CCCCCCCCCCCCCCCC(=O)OC[C@@H](COP(=O)(O)O[C@H]1[C@H](O)[C@@H](O)[C@H](O)[C@@H](CI)[C@H]1O)OC(=O)CCCCCCCCCCCCCCC |
|  | 85% | 4.46 | CCCCCCCCCCCCCCCC(=O)OC[C@@H](COP(=O)(O)O[C@H]1[C@H](O)[C@@H](O)[C@H](O)[C@@H](CO)[C@H]1O)OC(=O)CCCCCCCCCCCCCCC |
| 4.77 | > 98% | 4.70 | CCCCCCCCCCCCCCCC(=O)OC[C@@H](COP(=O)(O)O[C@H]1[C@H](O)[C@@H](O)[C@H](O)[C@@H](CN)[C@H]1O)OC(=O)CCCCCCCCCCCCCCC |
|  | 60% |  | CCCCCCCCCCCCCCCC(=O)OC[C@@H](COP(=O)(O)O[C@H]1[C@H](O)[C@@H](O)[C@H](O)[C@@H](CBr)[C@H]1O)OC(=O)CCCCCCCCCCCCCCC |
|  | 60% |  | CCCCCCCCCCCCCCCC(=O)OC[C@@H](COP(=O)(O)O[C@H]1[C@H](O)[C@@H](O)[C@H](O)[C@@H](CCl)[C@H]1O)OC(=O)CCCCCCCCCCCCCCC |
|  | 60% |  | CCCCCCCCCCCCCCCC(=O)OC[C@@H](COP(=O)(O)O[C@H]1[C@H](O)[C@@H](O)[C@H](O)[C@@H](CF)[C@H]1O)OC(=O)CCCCCCCCCCCCCCC |
